Entries after “also recorded” stand apart in the source; their conditions may differ.
How the values were obtained:
[1] = Phase II study: toxicities (NCI-CTCAE v4.0); format: in vivo, human; conditions: 200 mg weekly, n = 8
Method: The starting dose and schedule for MK-2206 was 200 mg given weekly in 28-day cycles without interruption. Treatment was administered on an outpatient basis. Two levels of dose reductions were planned (135 mg weekly and 90 mg weekly) with patients taken off the study for additional dose reductions.
Radiologic assessment was done by computed tomography every 8 weeks and responses were measured according to RECIST 1.1[17]. Toxicities were defined by the NCI-Common Terminology Criteria of Adverse Events version 4.0.

[2] = system: CYP3A4; design: method as in PMID 24387695; conditions: read-out: IC50 CYP3A4 inhibition; cited from earlier work
[3] = system: CYP2C9; design: method as in PMID 24387695; conditions: read-out: IC50 CYP2C9 inhibition; cited from earlier work
[4] = system: CYP2D6; design: method as in PMID 24387695; conditions: read-out: IC50 CYP2D6 inhibition; cited from earlier work
[5] = system: P-glycoprotein; conditions: cited from earlier work
[6] = system: breast cancer; design: method as in PMID 24252402; conditions: 48-hr plasma concentration, patients with breast cancer; cited from earlier work

NC1(c2ccc(-c3nc4ccn5c(=O)[nH]nc5c4cc3-c3ccccc3)cc2)CCC1 [MK-2206]
Anemia, All toxicities (%) [1]: 12.5%
Anemia, Grade 1 (%) [1]: 12.5%
Constipation, All toxicities (%) [1]: 12.5%
Constipation, Grade 1 (%) [1]: 12.5%
Diarrhea, All toxicities (%) [1]: 50%
Diarrhea, Grade 1 (%) [1]: 25%
Diarrhea, Grade 2 (%) [1]: 12.5%
Diarrhea, Grade 3 (%) [1]: 12.5%
Dry Mouth, All toxicities (%) [1]: 25%
Dry Mouth, Grade 1 (%) [1]: 25%
Dry Skin, All toxicities (%) [1]: 38%
Dry Skin, Grade 1 (%) [1]: 25%
Dry Skin, Grade 2 (%) [1]: 12.5%
Fatigue, All toxicities (%) [1]: 50%
Fatigue, Grade 1 (%) [1]: 25%
Fatigue, Grade 2 (%) [1]: 25%
Fever, Grade 1 (%) [1]: 25%
Hand Foot Syndrome, All toxicities (%) [1]: 38%
Hand Foot Syndrome, Grade 1 (%) [1]: 25%
Hand Foot Syndrome, Grade 2 (%) [1]: 12.5%
Hyponatremia, All toxicities (%) [1]: 12.5%
Hypophosphatemia, All toxicities (%) [1]: 25%
Hypophosphatemia, Grade 2 (%) [1]: 25%
Leukopenia, All toxicities (%) [1]: 12.5%
Leukopenia, Grade 1 (%) [1]: 12.5%
Lymphopenia, All toxicities (%) [1]: 75%
Lymphopenia, Grade 1 (%) [1]: 25%
Lymphopenia, Grade 2 (%) [1]: 12.5%
Lymphopenia, Grade 3 (%) [1]: 37.5%
Macular Rash, All toxicities (%) [1]: 63%
Macular Rash, Grade 1 (%) [1]: 12.5%
Macular Rash, Grade 2 (%) [1]: 12.5%
Macular Rash, Grade 3 (%) [1]: 38%
Mucositis, All toxicities (%) [1]: 38%
Mucositis, Grade 1 (%) [1]: 38%
Nausea, All toxicities (%) [1]: 38%
Nausea, Grade 1 (%) [1]: 38%
Thrombocytopenia, All toxicities (%) [1]: 25%
Thrombocytopenia, Grade 1 (%) [1]: 12.5%
Thrombocytopenia, Grade 3 (%) [1]: 12.5%
Vomiting, All toxicities (%) [1]: 50%
Vomiting, Grade 1 (%) [1]: 50%
overall toxicity / tolerability [1]: mild and tolerable; also recorded: mostly grade 1 or 2 and were reversible
Hyponatremia, Grade 4 (%) ([1]; felt to be unrelated to MK-2206): 12.5%
IC50 [3]: > 35 µM
IC50 [4]: > 35 µM
P-glycoprotein substrate [5]: substrate of P-glycoprotein
